Laboratory results reported in PubChem BioAssay (NCI).
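These data come from cells grown in 96-well plates and exposed to compound for 48 hours at five concentrations. Here, GI50 denotes the concentration required for 50% inhibition of growth. Definition used: TGI = concentration required for complete inhibition of growth.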

Assays:
Experiment in all cases: inhibition of tumour cell growth, NCI panel, 48 h
[1] = tested on: 786-0 renal
[2] = tested on: SR leukemia
[3] = tested on: UO-31 renal
[4] = tested on: COLO 205 colon
[5] = tested on: PC-3 prostate
[6] = tested on: SW-620 colon
[7] = tested on: IGROV1 ovarian
[8] = tested on: NCI-H23 lung
[9] = tested on: HOP-92 NSCLC
[10] = tested on: RXF 393 renal
[11] = tested on: M14 melanoma
[12] = tested on: UACC-62 melanoma
[13] = tested on: NCI-H460 lung
[14] = tested on: RPMI-8226 leukemia
[15] = tested on: CCRF-CEM leukemia
[16] = tested on: A549 NSCLC
[17] = tested on: SK-OV-3 ovarian
[18] = tested on: SNB-19 CNS
[19] = tested on: KM12 colon
[20] = tested on: HL-60(TB) leukemia
[21] = tested on: MOLT-4 leukemia
[22] = tested on: MDA-MB-231 breast
[23] = tested on: LOX IMVI melanoma
[24] = tested on: NCI-H522 lung
[25] = tested on: BT-549 breast
[26] = tested on: OVCAR-8 ovarian
[27] = tested on: SK-MEL-28 melanoma
[28] = tested on: OVCAR-3 ovarian
[29] = tested on: HS 578T breast
[30] = tested on: DU-145 prostate
[31] = tested on: NCI/ADR-RES ovarian
[32] = tested on: U251 CNS
[33] = tested on: EKVX NSCLC
[34] = tested on: HT29 colon
[35] = tested on: NCI-H226 lung
[36] = tested on: MALME-3M melanoma
[37] = tested on: CAKI-1 renal
[38] = tested on: HCT-15 colon
[39] = tested on: SK-MEL-2 melanoma
[40] = tested on: OVCAR-4 ovarian
[41] = tested on: K-562 leukemia
[42] = tested on: SK-MEL-5 melanoma
[43] = tested on: SNB-75 CNS
[44] = tested on: HCC-2998 colon
[45] = tested on: HOP-62 NSCLC
[46] = tested on: MDA-MB-435
[47] = tested on: UACC-257 melanoma
[48] = tested on: SF-539 CNS
[49] = tested on: SF-295 CNS
[50] = tested on: SF-268 CNS
[51] = tested on: SN12C renal
[52] = tested on: T-47D breast
[53] = tested on: MCF7 breast
[54] = tested on: OVCAR-5 ovarian
[55] = tested on: HCT-116 colon
[56] = tested on: ACHN renal
[57] = tested on: TK-10 renal
[58] = tested on: A498 renal

`CNC(=O)n1ccc2cc(Oc3ccnc(NC(=O)c4ccc(C5CCN(CCO)CC5)cc4)c3)c(OCCOC)cc21` showed a GI50 [1] of 1.94 µM, a TGI [1] of 4.38 µM and a GI50 [2] of 2.27 µM. The TGI [2] was 25 µM, the GI50 [3] was 16.5 µM and the TGI [3] was 33.2 µM. For the same molecule, the GI50 [4] was 2.83 µM, the TGI [4] was 8.6 µM and the GI50 [5] was 6.1 µM. The TGI [5] was 26.2 µM, the GI50 [6] was 6.3 µM and the TGI [6] was 18.9 µM. It also gave a GI50 [7] of 5.65 µM, a TGI [7] of 20.7 µM and a GI50 [8] of 10.5 µM. The TGI [8] was 24.4 µM, the GI50 [9] was 3.48 µM and the TGI [9] was 20.6 µM. The GI50 [10] was 1.34 µM, the TGI [10] was 3.09 µM and the GI50 [11] was 1.98 µM. It also gave a TGI [11] of 4.24 µM, a GI50 [12] of 5.23 µM and a TGI [12] of 17.5 µM. For the same molecule, the GI50 [13] was 3.22 µM, the TGI [13] was 10.2 µM and the GI50 [14] was 2 µM. The TGI [14] was 6.58 µM, the GI50 [15] was 2.8 µM and the TGI [15] was greater than 100 µM. It also gave a GI50 [16] of 5.27 µM, a TGI [16] of 21.4 µM and a GI50 [17] of 10.5 µM. It also gave a TGI [17] of 23.1 µM, a GI50 [18] of 7.47 µM and a TGI [18] of 21.5 µM. It also gave a GI50 [19] of 10.4 µM, a TGI [19] of 24.5 µM and a GI50 [20] of 2.13 µM. The TGI [20] was 4.58 µM, the GI50 [21] was 2.65 µM and the TGI [21] was 12.7 µM. For the same molecule, the GI50 [22] was 2.46 µM, the TGI [22] was 6.11 µM and the GI50 [23] was 1.77 µM. It also gave a TGI [23] of 3.7 µM, a GI50 [24] of 3.09 µM and a TGI [24] of 11 µM. The GI50 [25] was 2.35 µM, the TGI [25] was 14.2 µM and the GI50 [26] was 4.51 µM. The TGI [26] was 19.5 µM, the GI50 [27] was 6.33 µM and the TGI [27] was 19.2 µM. It also gave a GI50 [28] of 3.67 µM, a TGI [28] of 11 µM and a GI50 [29] of 1.84 µM. It also gave a TGI [29] of 7.37 µM, a GI50 [30] of 11.2 µM and a TGI [30] of 23.2 µM. It also gave a GI50 [31] of 12.9 µM, a TGI [31] of 42.4 µM and a GI50 [32] of 3.15 µM. It also gave a TGI [32] of 12.3 µM, a GI50 [33] of 14.7 µM and a TGI [33] of 29.3 µM. It also gave a GI50 [34] of 0.801 µM, a TGI [34] of 11.1 µM and a GI50 [35] of 12.1 µM. The TGI [35] was 31.3 µM, the GI50 [36] was 1.62 µM and the TGI [36] was 3.15 µM. For the same molecule, the GI50 [37] was 3.08 µM, the TGI [37] was 11.3 µM and the GI50 [38] was 4.42 µM. For the same molecule, the TGI [38] was 15.6 µM, the GI50 [39] was 8.57 µM and the TGI [39] was 23.2 µM. It also gave a GI50 [40] of 1.99 µM, a TGI [40] of 5.78 µM and a GI50 [41] of 0.529 µM. For the same molecule, the TGI [41] was 10.6 µM, the GI50 [42] was 1.96 µM and the TGI [42] was 3.86 µM. The GI50 [43] was 1.84 µM, the TGI [43] was 7.28 µM and the GI50 [44] was 8.57 µM. It also gave a TGI [44] of 21.3 µM, a GI50 [45] of 4.56 µM and a TGI [45] of 18.6 µM. For the same molecule, the GI50 [46] was 3.2 µM, the TGI [46] was 11.8 µM and the GI50 [47] was 2.24 µM. It also gave a TGI [47] of 5.73 µM, a GI50 [48] of 1.12 µM and a TGI [48] of 2.56 µM. The GI50 [49] was 8.54 µM, the TGI [49] was 21 µM and the GI50 [50] was 10.2 µM. It also gave a TGI [50] of 23 µM, a GI50 [51] of 13.5 µM and a TGI [51] of 27.9 µM. It also gave a GI50 [52] of 11.8 µM, a TGI [52] of 36 µM and a GI50 [53] of 4.33 µM. It also gave a TGI [53] of 19.5 µM, a GI50 [54] of 8.43 µM and a TGI [54] of 22.7 µM. The GI50 [55] was 2.63 µM, the TGI [55] was 11.9 µM and the GI50 [56] was 3.16 µM. The TGI [56] was 10.7 µM, the GI50 [57] was 15.3 µM and the TGI [57] was 29.6 µM.
For `COc1cccc(-c2cc(=O)c3c(C)cc(C)nc3[nH]2)c1`, the TGI [1] was greater than 100 µM, the TGI [2] was 0.513 µM and the TGI [3] was greater than 100 µM. For the same molecule, the TGI [4] was 0.637 µM, the TGI [5] was greater than 100 µM and the TGI [6] was greater than 100 µM. It also gave a TGI [7] greater than 67.4 µM, a TGI [8] greater than 38.4 µM and a TGI [9] greater than 85 µM. For the same molecule, the TGI [10] was greater than 100 µM, the TGI [11] was greater than 100 µM and the TGI [12] was greater than 100 µM. The TGI [13] was greater than 42.1 µM, the TGI [14] was 6.09 µM and the TGI [15] was 2.87 µM. For the same molecule, the TGI [16] was greater than 100 µM, the TGI [17] was greater than 100 µM and the TGI [18] was greater than 100 µM. The TGI [19] was 16.6 µM, the TGI [20] was 0.505 µM and the TGI [21] was greater than 71.9 µM. For the same molecule, the TGI [22] was greater than 100 µM, the TGI [23] was greater than 100 µM and the TGI [24] was 11.5 µM. For the same molecule, the TGI [25] was greater than 100 µM, the TGI [26] was greater than 100 µM and the TGI [27] was greater than 100 µM. It also gave a TGI [28] of 0.652 µM, a TGI [29] greater than 100 µM and a TGI [30] greater than 72.1 µM. For the same molecule, the TGI [31] was greater than 100 µM, the TGI [32] was greater than 88.6 µM and the TGI [58] was 10.8 µM. It also gave a TGI [33] greater than 100 µM, a TGI [35] of 9.09 µM and a TGI [36] greater than 100 µM. The TGI [38] was greater than 45.5 µM, the TGI [39] was 97.6 µM and the TGI [40] was greater than 100 µM. It also gave a TGI [41] of 1.41 µM, a TGI [42] of 14.8 µM and a TGI [43] of 0.671 µM. It also gave a TGI [44] of 6.19 µM, a TGI [45] greater than 65.1 µM and a TGI [46] of 0.398 µM. For the same molecule, the TGI [49] was greater than 73.6 µM, the TGI [50] was 36.2 µM and the TGI [51] was greater than 100 µM. The TGI [52] was greater than 100 µM, the TGI [53] was 27.3 µM and the TGI [54] was greater than 100 µM. It also gave a TGI [55] greater than 59.9 µM, a TGI [56] greater than 100 µM and a TGI [57] greater than 100 µM.
